Measured values published in ChEMBL document CHEMBL4152336, “Optimization of the first small-molecule relaxin/insulin-like family peptide receptor (RXFP1) agonists: Activation results in an antifibrotic gene expression profile” (Eur J Med Chem, 2018).
Active and inactive are the calls of the source. The calls are words filed in the database; no cut-off is given here.

Legend:
Mus musculus [1] = experiment: Toxicity in C57/BL6 mouse assessed as body weight at 90 mg/kg, po treated for 5 days measured at day 10 post last dose (reference value: 20.7 +/- 2.6 g); type: organism-based; settings: in vivo, 120 h
Mus musculus [2] = experiment: Toxicity in C57/BL6 mouse at 3 to 30 mg/kg, po; type: organism-based; settings: in vivo
[3] = Drug level in C57/BL6 mouse heart at 3 mg/kg, iv after 24 hrs; type: ADME, organism-based; settings: in vivo
Mus musculus [4] = experiment: Toxicity in C57/BL6 mouse assessed as abnormal behavior at 3 to 30 mg/kg, po; type: organism-based; settings: in vivo
[5] = Drug level in C57/BL6 mouse heart at 30 mg/kg, po after 0.5 hrs; type: ADME, organism-based; settings: in vivo
Mus musculus [6] = experiment: Toxicity in C57/BL6 mouse assessed as body weight at 90 mg/kg, po treated for 5 days measured at day 1 post last dose (reference value: 20.3 +/- 2.6 g); type: organism-based; settings: in vivo, 120 h
Mus musculus [7] = experiment: Toxicity in C57/BL6 mouse assessed as body weight at 3000 mg/kg, po treated for 5 days measured at day 6 post last dose (reference value: 20.6 +/- 2.6 g); type: organism-based; settings: in vivo, 120 h
Mus musculus [8] = experiment: Toxicity in C57/BL6 mouse assessed as body weight at 3000 mg/kg, po treated for 5 days measured at day 5 post last dose (reference value: 20.3 +/- 2.8 g); type: organism-based; settings: in vivo, 120 h
Mus musculus [9] = experiment: Toxicity in C57/BL6 mouse assessed as body weight at 300 mg/kg, po treated for 5 days measured at day 1 post last dose (reference value: 20.3 +/- 2.6 g); type: organism-based; settings: in vivo, 120 h
[10] = Drug level in C57/BL6 mouse heart at 30 mg/kg, po after 24 hrs; type: ADME, organism-based; settings: in vivo, BLD = below limit of detection
Mus musculus [11] = experiment: Toxicity in C57/BL6 mouse assessed as body weight at 3000 mg/kg, po treated for 5 days measured at day 1 post last dose (reference value: 20.3 +/- 2.6 g); type: organism-based; settings: in vivo, 120 h
Homo sapiens = species on record: Homo sapiens; experiment: Down regulation of CTGF gene expression in human HSC at 5 uM after 24 to 72 hrs by RT-qPCR analysis; type: functional
Mus musculus [12] = experiment: Toxicity in C57/BL6 mouse assessed as body weight at 90 mg/kg, po treated for 5 days measured at day 3 post last dose (reference value: 19.8 +/- 2.5 g); type: organism-based; settings: in vivo, 120 h
Mus musculus [13] = experiment: Toxicity in C57/BL6 mouse at 3 to 30 mg/kg, iv; type: organism-based; settings: in vivo
[14] = Drug level in C57/BL6 mouse heart at 3 mg/kg, iv after 0.5 hrs; type: ADME, organism-based; settings: in vivo
[15] = Drug level in C57/BL6 mouse heart at 3 mg/kg, iv after 0.25 hrs; type: ADME, organism-based; settings: in vivo
Mus musculus [16] = experiment: Toxicity in C57/BL6 mouse assessed as body weight at 90 mg/kg, po treated for 5 days measured at day 8 post last dose (reference value: 20.6 +/- 2.8 g); type: organism-based; settings: in vivo, 120 h
Mus musculus [17] = experiment: Toxicity in C57/BL6 mouse assessed as body weight at 300 mg/kg, po treated for 5 days measured at day 2 post last dose (reference value: 19.8 +/- 2.3 g); type: organism-based; settings: in vivo, 120 h

Compound: CC(C)Oc1ccccc1C(=O)Nc1ccccc1C(=O)Nc1cccc(S(=O)(=O)C(F)(F)F)c1
- Activity (Mus musculus [1]): 20.8 g
- Activity (Mus musculus [2]): Non-Toxic
- Drug uptake [3]: 0.109 µmol/kg
- Activity (Mus musculus [4]): Non-Toxic
- Drug uptake [5]: 1.428 µmol/kg
- Activity (Mus musculus [6]): 19.9 g
- Activity (Mus musculus [7]): 21.1 g
- Activity (Mus musculus [8]): 20.8 g
- Activity (Mus musculus [9]): 20.4 g
- Drug uptake [10]: Bld
- Activity (Mus musculus [11]): 20.6 g
- Activity (Homo sapiens): Active
- Activity (Mus musculus [12]): 19.9 g
- Activity (Mus musculus [13]): Non-Toxic
- Drug uptake [14]: 2.001 µmol/kg
- Drug uptake [15]: 2.084 µmol/kg
- Activity (Mus musculus [16]): 20.6 g
- Activity (Mus musculus [17]): 20.1 g
